Assay results as given in article PMC7253177, “Gain of channel function and modified gating properties in TRPM3 mutants causing intellectual disability and epilepsy” (eLife, 2020).

Columns and labels:
TRPM3 V990M mutant [1] = biological target: T1, TRPM3 V990M mutant (Homo sapiens, UniProt Q9HCF6, V1015M); test: Whole-cell patch clamp, HEK293T cells expressing V990M hTRPM3; type: cell-based
T1 construct: expressed in transfected cells; host or cells: HEK293T
T1 sequence (Q9HCF6 1-1325 isoform Q9HCF6-10 V990M): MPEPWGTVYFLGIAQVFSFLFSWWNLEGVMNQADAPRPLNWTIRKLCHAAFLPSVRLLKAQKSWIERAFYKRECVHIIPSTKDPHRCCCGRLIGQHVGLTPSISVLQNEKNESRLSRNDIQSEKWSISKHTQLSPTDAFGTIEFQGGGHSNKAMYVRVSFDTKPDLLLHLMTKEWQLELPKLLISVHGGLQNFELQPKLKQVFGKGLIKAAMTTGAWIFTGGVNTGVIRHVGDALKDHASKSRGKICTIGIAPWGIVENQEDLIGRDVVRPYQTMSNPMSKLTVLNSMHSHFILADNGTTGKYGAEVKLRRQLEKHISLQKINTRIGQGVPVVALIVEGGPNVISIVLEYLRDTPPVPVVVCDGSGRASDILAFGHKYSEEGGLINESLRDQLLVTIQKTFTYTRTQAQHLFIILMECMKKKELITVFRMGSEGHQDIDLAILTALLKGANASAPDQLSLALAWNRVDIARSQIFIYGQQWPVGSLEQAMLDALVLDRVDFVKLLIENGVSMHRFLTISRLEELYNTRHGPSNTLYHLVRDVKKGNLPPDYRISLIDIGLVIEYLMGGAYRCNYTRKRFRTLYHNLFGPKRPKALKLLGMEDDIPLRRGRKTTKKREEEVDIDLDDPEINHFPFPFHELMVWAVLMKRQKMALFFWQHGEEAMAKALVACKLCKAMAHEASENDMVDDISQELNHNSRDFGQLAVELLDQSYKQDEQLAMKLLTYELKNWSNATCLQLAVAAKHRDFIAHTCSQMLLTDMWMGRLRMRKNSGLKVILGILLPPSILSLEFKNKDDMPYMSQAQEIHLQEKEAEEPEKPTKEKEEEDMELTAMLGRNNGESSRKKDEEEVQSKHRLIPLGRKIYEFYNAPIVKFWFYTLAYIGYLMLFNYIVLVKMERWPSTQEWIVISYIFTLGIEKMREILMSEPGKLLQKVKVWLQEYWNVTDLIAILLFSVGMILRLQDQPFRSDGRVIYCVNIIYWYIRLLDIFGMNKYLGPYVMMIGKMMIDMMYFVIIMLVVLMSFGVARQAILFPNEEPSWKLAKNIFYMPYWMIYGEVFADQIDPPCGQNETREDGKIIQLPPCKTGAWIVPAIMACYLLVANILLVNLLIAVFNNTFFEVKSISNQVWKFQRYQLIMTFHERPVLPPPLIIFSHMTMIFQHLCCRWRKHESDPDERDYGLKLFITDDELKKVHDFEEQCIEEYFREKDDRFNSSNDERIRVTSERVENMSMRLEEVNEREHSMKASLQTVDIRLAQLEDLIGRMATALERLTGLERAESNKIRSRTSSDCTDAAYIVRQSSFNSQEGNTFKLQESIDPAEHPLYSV
Protocol: (§1) HEK293T cells ([Graham et al., 1977]) were cultured as described previously ([Vriens et al., 2007]) and used up in passage number 14. HEK293T cells were tested for the lack of mycoplasma and transiently transfected with 2 µg of DNA using TransIT transfection reagent (Mirus) 36–48 hr before the measurements. In case of co-cultures a ratio of 1:1 between hTRPM3-YFP WT and mutants-YFP DNA was used.
(§2) All mutants were obtained by the standard PCR overlap extension method using hTRPM3 directly linked to YFP from pCAGGS/IRES-GFP vector ([Vriens et al., 2007]). Accuracy of all mutant sequences was verified by sequencing of the entire DNA constructs.
Standard whole-cell patch-clamp recordings were performed with an EPC-10 amplifier and the PatchMasterPro Software (HEKA Elektronik, Lambrecht, Germany). Current measurements were performed at a sampling rate of 20 kHz and currents were digitally filtered at 2.9 kHz. In all measurements, 70% of the series resistance was compensated. The standard internal solution contained (in mM): 100 CsAsp, 45 CsCl, 10 EGTA, 10 HEPES, 1 MgCl2 (pH 7.2 with CsOH) or 140 potassium gluconate, 5 EGTA, 1 MgCl2, 10 HEPES and 2 NaATP (pH 7.3 with CsOH) for the measurements of Gβγ mediated inhibition and the standard extracellular solution contained (in mM): 150 NaCl, 1 MgCl2, 10 HEPES (pH 7.4 with NaOH). The standard patch pipette resistance was between 2 MΩ and 4 MΩ when filled with pipette solution. In experiments allowing Ca^2+-dependent desensitization of TRPM3, Mg^2+ was replaced by Ca^2+ in the extracellular solution, and Cs^+ was replaced by Na^+ in the pipette solution. […] The chemical ligands were dissolved in bath solution from a stock diluted in DMSO.

WT:P1090Q TRPM3 mixture = test: Whole-cell patch clamp, HEK293T cells co-transfected with WT and P1090Q TRPM3 (1:1); type: cell-based, human; conditions: WT:P1090Q 1:1; Clt 10 µM, PS 40 µM
Excerpt: (§3) Considering that all reported DEE patients were heterozygous for the TRPM3 substitutions ([Dyment et al., 2019]), and that TRPM3 is functional as a tetramer, it can be expected that patient cells express a mixture of WT and mutant channel subunits, potentially leading to the formation of heteromultimeric channels with variable stoichiometry. To mimic the heterozygous condition in vitro, we performed a limited number of experiments in cells co-transfected with a mixture of cDNA encoding WT and mutant TRPM3 in a 1:1 ratio.
as §1
(§4) Standard whole-cell patch-clamp recordings were performed with an EPC-10 amplifier and the PatchMasterPro Software (HEKA Elektronik, Lambrecht, Germany). Current measurements were performed at a sampling rate of 20 kHz and currents were digitally filtered at 2.9 kHz. In all measurements, 70% of the series resistance was compensated. […]

WT:V990M TRPM3 mixture = test: Whole-cell patch clamp, HEK293T cells co-transfected with WT and V990M TRPM3 (1:1); type: cell-based, human; conditions: WT:V990M 1:1; Clt 10 µM
Excerpt: as §3, §1, §4

TRPM3 V990M mutant [2] = biological target: T1, TRPM3 V990M mutant; test: Fura-2-based calcium imaging, HEK293T cells transfected with V990M hTRPM3; type: cell-based
Protocol: as §1, §2
Changes in intracellular calcium concentration were monitored using ratiometric Fura-2-based fluorimetry. Cells were loaded with 2 µM Fura-2-acetoxymethyl ester (Alexis Biochemicals) for 30 min at 37°C. Fluorescence was measured during alternating illumination at 340 and 380 nm using Eclipse Ti (Nikon) fluorescence microscopy system, and absolute calcium concentration was calculated from the ratio of the fluorescence signals at these two wavelengths (R = F340/F380) as [Ca^2+]=Km × (R-Rmin)/(Rmax-R), where Km, Rmin and Rmax were estimated from in vitro calibration experiments with known calcium concentrations. The bath solution contained (in mM) 138 NaCl, 5.4 KCl, 2 CaCl2, 2 MgCl2, 10 glucose, and 10 HEPES, pH 7.4. […]

Clc1ccccc1C(c1ccccc1)(c1ccccc1)n1ccnc1 [Clt, clotrimazole]
Activation of whole-cell currents in the absence of PS (TRPM3 V990M mutant [1]; Clt 10 µM): induced robust currents | Effect of pre-incubation on PS responses (whole-cell currents) (WT:P1090Q TRPM3 mixture): first a potentiation of the PS responses by pre-incubation of Clt, followed by a time-dependent current inhibition | Activation of whole-cell currents in the absence of PS (WT:V990M TRPM3 mixture): activated robust currents

CCC1(c2ccccc2)C(=O)NCNC1=O [primidone]
Effect on basal [Ca2+]i (TRPM3 V990M mutant [2]; primidone 100 µM, isosakuranetin 50 µM, did not fully return to WT level): reduced [Ca^2+]i | Block of PS-activated currents (TRPM3 V990M mutant [1]; primidone 25 µM, PS 40 µM, ±80 mV, cells co-expressing µ-opioid receptor): ~ 50%

pregnenolone sulfate [PS]
PS concentration giving robust calcium responses (as low as) (TRPM3 V990M mutant [2]): 100 nM
